# Measured values taken from ChEMBL document CHEMBL2380296, “Structure-based design and optimization of 2-aminothiazole-4-carboxamide as a new class of CHK1 inhibitors” (Bioorg Med Chem Lett, 2013).
# Assays:
# [1] = biological target: T1, Serine/threonine-protein kinase Chk1 (Homo sapiens, UniProt O14757)
# T1 sequence (O14757 whole entry): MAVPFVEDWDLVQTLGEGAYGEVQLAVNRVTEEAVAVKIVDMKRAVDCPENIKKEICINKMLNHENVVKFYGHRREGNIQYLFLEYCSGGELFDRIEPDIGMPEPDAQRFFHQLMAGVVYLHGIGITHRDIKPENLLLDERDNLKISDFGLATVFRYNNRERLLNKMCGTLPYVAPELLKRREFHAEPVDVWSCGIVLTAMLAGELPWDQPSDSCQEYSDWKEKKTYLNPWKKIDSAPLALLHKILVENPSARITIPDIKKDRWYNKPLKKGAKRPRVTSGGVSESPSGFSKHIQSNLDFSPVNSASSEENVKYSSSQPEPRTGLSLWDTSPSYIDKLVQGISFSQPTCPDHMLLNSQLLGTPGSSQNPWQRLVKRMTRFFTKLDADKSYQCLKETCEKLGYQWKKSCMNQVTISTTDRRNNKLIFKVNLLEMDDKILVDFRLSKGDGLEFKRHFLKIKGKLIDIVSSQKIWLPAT
# [2] = biological target: T1, Serine/threonine-protein kinase Chk1; assay: Inhibition of CHK1 in human U2OS cells assessed as phosphorylation of H2AX after 2 hrs by FITC/propidium iodide staining-based immunofluorescence assay in presence of hydroxyurea; type: cell-based
SMILES,IC50 [1],EC50 [2]
O=C(Nc1ccccc1N1CCNCC1)c1csc(-n2ncc3ccccc32)n1,2 nM,750 nM
O=C(Nc1ccccc1N1CCNCC1)c1csc(N2CCc3sccc3C2)n1,39 nM,–
O=C(Nc1cnccc1N1CCNCC1)c1csc(-c2ccc3[nH]ccc3c2)n1,10 nM,1000 nM
COc1ccc2c(c1)C(=O)N(c1nc(C(=O)Nc3ccccc3N3CCNCC3)cs1)C2,5 nM,250 nM
O=C(Nc1ccccc1N1CCNCC1)c1csc(N2Cc3ccccc3C2)n1,8 nM,1400 nM
O=C(Nc1ccccc1N1CCNCC1)c1csc(N2CCc3[nH]cnc3C2)n1,4000 nM,–
O=C(Nc1cnccc1N1CCNCC1)c1csc(N2Cc3ccccc3C2)n1,8 nM,900 nM
O=C(Nc1ccccc1N1CCNCC1)c1csc(N2CCCc3ccccc32)n1,38 nM,–
O=C(Nc1cnccc1N1CCNCC1)c1csc(N2Cc3ccccc3C2=O)n1,2 nM,100 nM
O=C(Nc1ccccc1N1CCNCC1)c1csc(NCc2ccccc2)n1,11000 nM,–
O=C(Nc1ccccc1N1CCNCC1)c1csc(-n2nnc3ccccc32)n1,110 nM,–
O=C(Nc1ccccc1N1CCNCC1)c1csc(Nc2ccccc2)n1,92 nM,–
O=C(Nc1ccccc1N1CCNCC1)c1csc(Nc2cc(-c3ccccc3)n[nH]2)n1,14 nM,7500 nM
COc1ccc2c(c1)C(=O)N(c1nc(C(=O)Nc3cnc4ccccc4c3N3CCNCC3)cs1)C2,5200 nM,–
COc1ccc(-c2cc(Nc3nc(C(=O)Nc4ccccc4N4CCNCC4)cs3)[nH]n2)cc1,3 nM,3750 nM
O=C(Nc1ccccc1N1CCNCC1)c1csc(N2CCc3c(F)ccc(F)c3C2)n1,1300 nM,–
Cc1nc2c(s1)CN(c1nc(C(=O)Nc3ccccc3N3CCNCC3)cs1)C2,280 nM,–
O=C(Nc1ccccc1N1CCNCC1)c1csc(-n2cccn2)n1,120 nM,–
O=C(Nc1cnccc1N1CCNCC1)c1csc(-c2cc3ccccc3s2)n1,3 nM,1000 nM
COc1ccc2c(c1)C(=O)N(c1nc(C(=O)Nc3cnc(C)cc3N3CCNCC3)cs1)C2,10 nM,1000 nM
Cn1nc(-c2ccccc2)cc1Nc1nc(C(=O)Nc2ccccc2N2CCNCC2)cs1,4500 nM,–
O=C(Nc1ccccc1N1CCNCC1)c1csc(Nc2n[nH]c3ccccc23)n1,2 nM,350 nM

SMILES,IC50 [1],EC50 [2]
COc1ccc2c(c1)C(=O)N(c1nc(C(=O)Nc3cc(F)ccc3N3CCNCC3)cs1)C2,4 nM,6000 nM
CN(c1ccccc1)c1nc(C(=O)Nc2ccccc2N2CCNCC2)cs1,240 nM,–
O=C(Nc1cnccc1N1CCNCC1)c1csc(-c2ccc3c(c2)CCO3)n1,55 nM,–
O=C(Nc1ncccc1N1CCNCC1)c1csc(-c2ccc3c(c2)CCO3)n1,4700 nM,–
O=C(Nc1ccccc1N1CCNCC1)c1csc(-n2ccnc2)n1,10000 nM,–
O=C(Nc1ccccc1N1CCNCC1)c1csc(N2Cc3ccncc3C2)n1,190 nM,–
O=C(Nc1cnccc1N1CCNCC1)c1csc(Nc2n[nH]c3ccccc23)n1,3 nM,40 nM
CN(Cc1ccccc1)c1nc(C(=O)Nc2ccccc2N2CCNCC2)cs1,> 50000 nM,–
COc1ccc(-c2cc(N)n(-c3nc(C(=O)Nc4ccccc4N4CCNCC4)cs3)n2)cc1,980 nM,–
O=C(Nc1ccccc1N1CCNCC1)c1csc(N2Cc3cn[nH]c3C2)n1,62 nM,–
O=C(Nc1ccccc1N1CCNCC1)c1csc(NC2Cc3ccccc3C2)n1,6900 nM,–
COc1cc2c(cc1OC)CN(c1nc(C(=O)Nc3ccccc3N3CCNCC3)cs1)CC2,29 nM,–
O=C(Nc1cnccc1N1CCNCC1)c1csc(-c2ccc3occc3c2)n1,28 nM,–
O=C(Nc1cnccc1N1CCNCC1)c1csc(-c2ccc(Oc3ccccc3)cc2)n1,430 nM,–
COc1ccc2c(c1)C(=O)N(c1nc(C(=O)Nc3cncnc3N3CCNCC3)cs1)C2,46 nM,–
O=C(Nc1ccncc1N1CCNCC1)c1csc(-c2ccc3c(c2)CCO3)n1,230 nM,–
O=C(Nc1ccccc1N1CCNCC1)c1csc(N2CCc3ccccc3C2)n1,38 nM,–
COc1ccc2c(c1)C(=O)N(c1nc(C(=O)Nc3ccnnc3N3CCNCC3)cs1)C2,281 nM,–
Cc1ncc2c(n1)CN(c1nc(C(=O)Nc3ccccc3N3CCNCC3)cs1)C2,5700 nM,–
O=C(Nc1cccnc1N1CCNCC1)c1csc(-c2ccc3c(c2)CCO3)n1,870 nM,–
O=C(Nc1cnccc1N1CCNCC1)c1csc(-n2ncc3ccccc32)n1,3 nM,75 nM
O=C(Nc1cnccc1N1CCNCC1)c1csc(-c2ccc3sccc3c2)n1,7 nM,1250 nM
